# Publication PMC11650735, “Challenging Reported Frizzled-Targeting Compounds in Selective Assays Reveals Lack of Functional Inhibition and Claimed Profiles” (ACS Pharmacology & Translational Science, 2024)
# Tested on: individually reexpressed FZDs (1,2,4,5,7,8, and 10)
# Test: TopFlash in ΔFZD1–10 HEK293T, panel of individually reexpressed FZDs, Wnt3a-stimulated (collective statements)
# Details: compared with pcDNA+CHIR99021
row,SMILES,FZDs whose reintroduction reduces the compound's potency
1,O=C(/C=C/c1ccc2c(c1)OCO2)Nc1ccc(-n2cnc3ccccc32)cc1 [SRI35959],"FZD1,4, and 7"
2,NC(=O)N1c2ccccc2C=Cc2ccccc21 [carbamazepine],FZD5 and FZD8
